# Assay results reported in the supplement of paper PMC11208160.
# Experiment: recombinant UMI read abundance after kanamycin selection (control-corrected) (log10(CPM+1)); higher = more efficient recombination; extreme values may be limits of the assay; sequences stand for … in AGTGCAGAGAAAATCGGCCAGTTTTCTCTGCCTGCAGTCCGCATGCCGTGGGACCCCTTGGGTTCTAACCTGTTGCCTAGATTTATGCAGCGGACTGCCTTTCTCCCAAAGTGATAAACCGG…AGGTTGGTTTCACT; site = the 11-nt donor
# How it was run: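 Counts of recombinant UMIs were reported as log10(CPM+1). Before that, they were converted to CPM, averaged over replicates and scaled using control-derived factors. They came from PCR across the donor–target junction after Escherichia coli carrying the pair library and target plasmid was plated on IPTG (0.07 mM) plus kanamycin, or unselected, in two replicates each.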
# 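Note: IS621 bridge recombinase in Escherichia coli cells against a fixed T5 target plasmid.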
row,Sequence,recombinant UMI read abundance (log10)
1,AGCCTTTCATGGACCGGTTTTCCCGGTAATCCGTATTTGAC (site AGCGTTTCTGT),0
2,AGCCTTTCATGGACCGGTTTTCCCGGTAATCCGTATTTGAC (site AGCTTTTCTGT),0
3,AGCCTTTCATGGACCGGTTTTCCCGGTAATCCGTATTTGAC (site AGGCTTTCTGT),0
4,AGCCTTTCATGGACCGGTTTTCCCGGTAATCCGTATTTGAC (site AGTCTTTCTGT),0
5,AGCCTTTCATGGACCGGTTTTCCCGGTAATCCGTATTTGAC (site ATCCTTTCTGT),0
6,AGCCTTTCATGGACCGGTTTTCCCGGTAATCCGTATTTGAC (site CGCCTTTCTGT),0
7,AGCCTTTCATGGACCGGTTTTCCCGGTAATCCGTATTTGAC (site GGCCTTTCTGT),0
8,AGCCTTTCATGGACCGGTTTTCCCGGTAATCCGTATTTGAC (site TGCCTTTCTGT),0
9,AGCCTTTCATGGACCGGTTTTCCCGGTAATCCGTATTTGCC (site AGCCTTTCTGA),0
10,AGCCTTTCATGGACCGGTTTTCCCGGTAATCCGTATTTGCC (site AGCCTTTCTGC),0
11,AGCCTTTCATGGACCGGTTTTCCCGGTAATCCGTATTTGCC (site AGCCTTTCTGG),1.05
12,AGCCTTTCATGGACCGGTTTTCCCGGTAATCCGTATTTGCC (site AGCCTTTCTGT),0
13,AGCGCAGCATGGACCGGTTTTCCCGGTAATCCGTATTTGCG (site AGCGCAGCTCG),1.01
14,AGCGCAGCATGGACCGGTTTTCCCGGTAATCCGTATTTGGG (site AGCACAGCTCC),0
15,AGCGCAGCATGGACCGGTTTTCCCGGTAATCCGTATTTGGG (site AGCCCAGCTCC),0.0111
16,AGCGCAGCATGGACCGGTTTTCCCGGTAATCCGTATTTGGG (site AGCGCAGCTCC),0.0103
17,AGCGCAGCATGGACCGGTTTTCCCGGTAATCCGTATTTGGG (site AGCTCAGCTCC),0.0119
18,AGCGCGACATGGACCGGTTTTCCCGGTAATCCGTATTTGAG (site AGCGCGACTCT),1.27
19,AGCGGTCCATGGACCGGTTTTCCCGGTAATCCGTATTTGAC (site AGCGGTCCTGT),0
20,AGCTAACCATGGACCGGTTTTCCCGGTAATCCGTATTTGAA (site AGCTAACCTTT),0.00558
21,AGCTAACCATGGACCGGTTTTCCCGGTAATCCGTATTTGTG (site AGCTAACCTCA),0.00444
22,AGCTACGCATGGACCGGTTTTCCCGGTAATCCGTATTTGGG (site AGCTACGCTCC),0.0157
23,AGCTATGCATGGACCGGTTTTCCCGGTAATCCGTATTTGAT (site AGCTATGCTAT),1.79
24,AGCTCGGCATGGACCGGTTTTCCCGGTAATCCGTATTTGGG (site AGCTCAGCTCC),0.0161
25,AGCTCGGCATGGACCGGTTTTCCCGGTAATCCGTATTTGGG (site AGCTCCGCTCC),0.0225

row,Sequence,recombinant UMI read abundance (log10)
1,AGCTCGGCATGGACCGGTTTTCCCGGTAATCCGTATTTGGG (site AGCTCGGCTCC),0
2,AGCTCGGCATGGACCGGTTTTCCCGGTAATCCGTATTTGGG (site AGCTCTGCTCC),0
3,AGCTCTACATGGACCGGTTTTCCCGGTAATCCGTATTTGAA (site AGCTCTACTTT),0
4,AGCTCTGCATGGACCGGTTTTCCCGGTAATCCGTATTTGGT (site AGCTCTGCTAC),1.36
5,AGCTGAGCATGGACCGGTTTTCCCGGTAATCCGTATTTGCC (site AGCTGAGCTGG),0.908
6,AGCTTGCCATGGACCGGTTTTCCCGGTAATCCGTATTTGGC (site AGCTTGCCTGC),0
7,AGCTTGTCATGGACCGGTTTTCCCGGTAATCCGTATTTGAG (site AGCTTGTCTCT),1.62
8,AGGAAATCATGGACCGGTTTTCCCGGTAATCCGTATTTGCA (site AGGAAATCTTG),1.9
9,AGGAAATCATGGACCGGTTTTCCCGGTAATCCGTATTTGCA (site AGGAAGACTTG),0
10,AGGAAATCATGGACCGGTTTTCCCGGTAATCCGTATTTGGT (site AGGAAATCTAC),1.73
11,AGGAAGACATGGACCGGTTTTCCCGGTAATCCGTATTTGCG (site AGGAAGACTAG),0.0723
12,AGGAAGACATGGACCGGTTTTCCCGGTAATCCGTATTTGCG (site AGGAAGACTCG),2.32
13,AGGAAGACATGGACCGGTTTTCCCGGTAATCCGTATTTGCG (site AGGAAGACTGG),0
14,AGGAAGACATGGACCGGTTTTCCCGGTAATCCGTATTTGCG (site AGGAAGACTTG),1.73
15,AGGAATACATGGACCGGTTTTCCCGGTAATCCGTATTTGCT (site AGGAAGACTTG),0
16,AGGAATACATGGACCGGTTTTCCCGGTAATCCGTATTTGCT (site AGGAATACTAG),2.18
17,AGGAATCCATGGACCGGTTTTCCCGGTAATCCGTATTTGTA (site AGGAATCCTTA),0.615
18,AGGAATCCATGGACCGGTTTTCCCGGTAATCCGTATTTGTA (site CGGAATCCTAA),0.00925
19,AGGACACCATGGACCGGTTTTCCCGGTAATCCGTATTTGTA (site AGGACACCTTA),0.189
20,AGGACATCATGGACCGGTTTTCCCGGTAATCCGTATTTGCT (site AGGACATCTAG),1.48
21,AGGACATCATGGACCGGTTTTCCCGGTAATCCGTATTTGCT (site CGGACATCTAG),1.01
22,AGGACATCATGGACCGGTTTTCCCGGTAATCCGTATTTGCT (site GGGACATCTAG),0.0498
23,AGGACATCATGGACCGGTTTTCCCGGTAATCCGTATTTGCT (site TGGACATCTAG),1.15
24,AGGACCCCATGGACCGGTTTTCCCGGTAATCCGTATTTGGT (site AGGACCCCTAC),0.297
25,AGGACGGCATGGACCGGTTTTCCCGGTAATCCGTATTTGAA (site AGGACGGCTTT),1.73

row,Sequence,recombinant UMI read abundance (log10)
1,AGGACTACATGGACCGGTTTTCCCGGTAATCCGTATTTGAC (site AAGACTACTGT),0.848
2,AGGACTACATGGACCGGTTTTCCCGGTAATCCGTATTTGAC (site ACGACTACTGT),0.945
3,AGGACTACATGGACCGGTTTTCCCGGTAATCCGTATTTGAC (site AGAACTACTGT),2.18
4,AGGACTACATGGACCGGTTTTCCCGGTAATCCGTATTTGAC (site AGCACTACTGT),0.0103
5,AGGACTACATGGACCGGTTTTCCCGGTAATCCGTATTTGAC (site AGGAATACTGT),1.29
6,AGGACTACATGGACCGGTTTTCCCGGTAATCCGTATTTGAC (site AGGACAACTGT),0.797
7,AGGACTACATGGACCGGTTTTCCCGGTAATCCGTATTTGAC (site AGGACCACTGT),0.969
8,AGGACTACATGGACCGGTTTTCCCGGTAATCCGTATTTGAC (site AGGACGACTGT),0.00571
9,AGGACTACATGGACCGGTTTTCCCGGTAATCCGTATTTGAC (site AGGACTACTAT),0.00291
10,AGGACTACATGGACCGGTTTTCCCGGTAATCCGTATTTGAC (site AGGACTACTCT),0.0111
11,AGGACTACATGGACCGGTTTTCCCGGTAATCCGTATTTGAC (site AGGACTACTGA),0
12,AGGACTACATGGACCGGTTTTCCCGGTAATCCGTATTTGAC (site AGGACTACTGC),0.68
13,AGGACTACATGGACCGGTTTTCCCGGTAATCCGTATTTGAC (site AGGACTACTGG),0
14,AGGACTACATGGACCGGTTTTCCCGGTAATCCGTATTTGAC (site AGGACTACTGT),2.29
15,AGGACTACATGGACCGGTTTTCCCGGTAATCCGTATTTGAC (site AGGACTACTTT),0.0694
16,AGGACTACATGGACCGGTTTTCCCGGTAATCCGTATTTGAC (site AGGACTCCTGT),0
17,AGGACTACATGGACCGGTTTTCCCGGTAATCCGTATTTGAC (site AGGACTGCTGT),0.359
18,AGGACTACATGGACCGGTTTTCCCGGTAATCCGTATTTGAC (site AGGACTTCTGT),0.0138
19,AGGACTACATGGACCGGTTTTCCCGGTAATCCGTATTTGAC (site AGGAGTACTGT),0
20,AGGACTACATGGACCGGTTTTCCCGGTAATCCGTATTTGAC (site AGGATTACTGT),0.471
21,AGGACTACATGGACCGGTTTTCCCGGTAATCCGTATTTGAC (site AGGCCTACTGT),0.988
22,AGGACTACATGGACCGGTTTTCCCGGTAATCCGTATTTGAC (site AGGGCTACTGT),0
23,AGGACTACATGGACCGGTTTTCCCGGTAATCCGTATTTGAC (site AGGTCTACTGT),1.2
24,AGGACTACATGGACCGGTTTTCCCGGTAATCCGTATTTGAC (site AGTACTACTGT),0.941
25,AGGACTACATGGACCGGTTTTCCCGGTAATCCGTATTTGAC (site ATGACTACTGT),1.13
